For test [1], the target named is Ionotropic glutamate receptor NMDA 1/2D (Homo sapiens) (UniProt Q05586+O15399). In words: Antagonist activity at GluN1/GluN2D receptor (unknown origin) overexpressed in CHO cells assessed as inhibition of Ca2+ flux incubated for 24 hrs in presence of glycine/L-glutamate by FLIPR assay. The class given is cell-based. (Calcium flux is commonly read through the fluorescence of an indicator in the cells.)

The target in test [2] is Glutamate NMDA receptor; GRIN1/GRIN2B (Homo sapiens) (UniProt Q05586+Q13224). In words: Antagonist activity at GluN1/GluN2B receptor (unknown origin) overexpressed in CHO cells assessed as inhibition of Ca2+ flux incubated for 24 hrs in presence of glycine/L-glutamate by FLIPR assay. The class given is cell-based.
The target of test [3] is Glutamate NMDA receptor; GRIN1/GRIN2A (Homo sapiens) (UniProt Q05586+Q12879). In words: Antagonist activity at GluN1/GluN2A receptor (unknown origin) overexpressed in CHO cells assessed as inhibition of Ca2+ flux incubated for 24 hrs in presence of glycine/L-glutamate by FLIPR assay. It is filed as cell-based.
Test [4] has as its target Ionotropic glutamate receptor NMDA 1/2C (Homo sapiens) (UniProt Q05586+Q14957). In words: Antagonist activity at GluN1/GluN2C receptor (unknown origin) overexpressed in CHO cells assessed as inhibition of Ca2+ flux incubated for 24 hrs in presence of glycine/L-glutamate by FLIPR assay. The class given is cell-based.
Test [5] has as its target Sigma non-opioid intracellular receptor 1 (Homo sapiens) (UniProt Q99720). In words: Displacement of [3H]pentazocine from sigma 1 receptor in human Jurkat cells at 0.3 to 3 uM incubated for 2 hrs. It is filed as cell-based. Particulars: dose 0.3-3 µM. (Loss of bound radioactivity is the signal in a displacement assay; it reports binding, not function.)
Test [6] addresses Glutamate NMDA receptor (Rattus norvegicus) (UniProt P35439+Q00959+Q00960+Q00961+Q62645+Q8VHN2+Q9R1M7). In words: Displacement of [3H]TCP from Wistar rat cerebral cortex NMDAR at 10 uM incubated for 1.5 hrs. The class given is tissue-based.
The target of test [7] is T1, 5-hydroxytryptamine receptor 1A (Homo sapiens) (UniProt P08908).
T1 sequence (whole entry): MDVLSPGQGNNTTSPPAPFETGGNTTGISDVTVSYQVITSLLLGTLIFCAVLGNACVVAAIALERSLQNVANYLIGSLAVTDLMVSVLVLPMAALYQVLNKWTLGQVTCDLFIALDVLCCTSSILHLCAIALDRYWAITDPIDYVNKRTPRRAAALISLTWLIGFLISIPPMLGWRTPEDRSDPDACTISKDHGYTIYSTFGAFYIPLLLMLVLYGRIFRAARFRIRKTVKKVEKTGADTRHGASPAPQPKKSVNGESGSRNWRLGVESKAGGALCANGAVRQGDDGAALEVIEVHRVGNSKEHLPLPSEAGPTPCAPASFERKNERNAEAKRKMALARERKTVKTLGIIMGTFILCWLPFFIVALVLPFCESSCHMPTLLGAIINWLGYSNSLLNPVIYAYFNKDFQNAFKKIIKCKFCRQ
In words: Displacement of [3H]8-OH-DPAT from recombinant human 5-HT1A receptor expressed in CHO-K1 cells at 0.3 to 3 uM incubated for 1 hr. Particulars: dose 0.3-3 µM. It is filed as cell-based.

The target of test [8] is Histamine H1 receptor (Homo sapiens) (UniProt P35367). Nature of the test: Displacement of [3H]pyrilamine from recombinant human histamine H1 receptor expressed in CHO-K1 cells at 10 to 30 uM incubated for 3 hrs. The class given is cell-based. Particulars: dose 10-30 µM.
The target of test [9] is Sodium-dependent serotonin transporter (Homo sapiens) (UniProt P31645). In words: Displacement of [3H]paroxetine from recombinant human SERT expressed in HEK293 cells at 10 uM incubated for 1 hr. The class given is cell-based.
Test [10] in a line: Selectivity index, ratio of displacement of [3H]TCP from Wistar rat cerebral cortex NMDAR to displacement of [3H]diprenorphine from recombinant human mu opioid receptor expressed in CHO-K1 cells. It is filed as cell-based.
For test [11], the target named is Sodium-dependent serotonin transporter (Homo sapiens) (UniProt P31645). Nature of the test: Displacement of [3H]paroxetine from recombinant human SERT expressed in HEK293 cells at 1 to 10 uM incubated for 1 hr. Conditions: dose 1-10 µM. It is filed as cell-based.

Each structure is given as a SMILES string. The source made the active and inactive calls. The rule behind the calls is not given here.

Chain of Sodium-dependent serotonin transporter (Homo sapiens) (P31645 whole entry, looked up): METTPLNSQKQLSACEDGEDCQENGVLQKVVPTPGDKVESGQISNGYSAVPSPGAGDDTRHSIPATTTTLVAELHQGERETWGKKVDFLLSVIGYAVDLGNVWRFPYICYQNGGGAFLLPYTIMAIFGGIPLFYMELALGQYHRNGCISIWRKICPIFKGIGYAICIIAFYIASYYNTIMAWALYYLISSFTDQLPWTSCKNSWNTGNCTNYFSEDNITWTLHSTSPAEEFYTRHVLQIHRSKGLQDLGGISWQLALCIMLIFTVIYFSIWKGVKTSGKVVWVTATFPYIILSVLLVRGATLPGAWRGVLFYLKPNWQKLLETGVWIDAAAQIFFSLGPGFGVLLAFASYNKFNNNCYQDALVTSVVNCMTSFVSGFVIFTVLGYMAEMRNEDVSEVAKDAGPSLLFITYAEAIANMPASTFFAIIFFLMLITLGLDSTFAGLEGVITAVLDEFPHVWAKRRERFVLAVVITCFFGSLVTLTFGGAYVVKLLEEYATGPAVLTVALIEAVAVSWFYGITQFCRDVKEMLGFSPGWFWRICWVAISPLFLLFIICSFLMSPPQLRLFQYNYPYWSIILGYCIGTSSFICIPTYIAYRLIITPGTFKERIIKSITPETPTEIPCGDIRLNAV
Chain of Histamine H1 receptor (Homo sapiens) (P35367 whole entry): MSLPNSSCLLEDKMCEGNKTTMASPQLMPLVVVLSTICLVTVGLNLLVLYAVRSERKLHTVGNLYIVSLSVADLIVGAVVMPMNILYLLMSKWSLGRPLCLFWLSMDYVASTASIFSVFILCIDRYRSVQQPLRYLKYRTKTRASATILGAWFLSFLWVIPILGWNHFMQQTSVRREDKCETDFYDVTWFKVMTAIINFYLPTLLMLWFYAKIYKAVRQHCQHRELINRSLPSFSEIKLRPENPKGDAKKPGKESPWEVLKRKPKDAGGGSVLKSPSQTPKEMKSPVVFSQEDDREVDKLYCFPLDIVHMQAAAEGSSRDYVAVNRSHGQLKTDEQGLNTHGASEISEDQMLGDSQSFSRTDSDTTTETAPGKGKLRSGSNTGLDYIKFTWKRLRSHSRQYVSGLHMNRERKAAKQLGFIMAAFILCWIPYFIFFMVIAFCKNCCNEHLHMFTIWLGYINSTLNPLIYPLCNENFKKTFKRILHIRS
Chain of Sigma non-opioid intracellular receptor 1 (Homo sapiens) (Q99720 whole entry): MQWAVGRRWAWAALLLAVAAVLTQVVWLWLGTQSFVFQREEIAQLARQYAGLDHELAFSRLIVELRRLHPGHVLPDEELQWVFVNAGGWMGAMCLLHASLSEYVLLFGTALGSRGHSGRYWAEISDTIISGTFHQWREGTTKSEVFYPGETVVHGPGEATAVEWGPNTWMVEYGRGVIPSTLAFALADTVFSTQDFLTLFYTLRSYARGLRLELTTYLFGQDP

As for `C[C@H](CC(C(=O)O)(c1ccccc1)c1ccccc1)N(C)C`, the inhibition entry in test [1], in [2], in test [3] and in [4] was “inactive” each time.
On to `CC[C@H](O)C(C[C@H](C)NC)(c1ccccc1)c1ccccc1`, for which the result in test [5] was Active. Moreover, the Activity entry in [6] (filed as antagonist) is reported as “Active; Compound Activity Comparable To (S)-Methadone”; in test [8], “Active; Compound Displayed Significant Activity Like (S)-Methadone”. Moreover, the result in [7] was inactive.
For the compound `CC[C@@H](O)C(C[C@@H](C)NC)(c1ccccc1)c1ccccc1`, the result in test [6] (filed as antagonist) and in [9] was Active. For the same compound, the result in test [7] was inactive. Also, in [10], the Ratio pKi is 0.83.
On to `C[C@@H]1CC(c2ccccc2)(c2ccccc2)C(=O)N1C`, for which the inhibition entry in [1], in [2], in test [3] and in test [4] was “inactive” throughout.
Regarding `CC[C@@H](O)C(C[C@H](C)N(C)C)(c1ccccc1)c1ccccc1`, the inhibition result in test [1], in test [2] and in test [4] was “inactive” in each case.
`CCC1=[N+](C)[C@H](C)CC1(c1ccccc1)c1ccccc1`: the inhibition entry in test [2] and in test [3] was “inactive” each time.
Consider `CCC1=N[C@H](C)CC1(c1ccccc1)c1ccccc1`, for which the outcome in test [6] and in test [7] was inactive.
In the case of `CC[C@H](O)C(C[C@H](C)N)(c1ccccc1)c1ccccc1`, the outcome in test [6] (filed as antagonist) and in test [11] was Active. In test [7], the result was inactive.
For `CC[C@H](O)C(C[C@@H](C)NC)(c1ccccc1)c1ccccc1`, the outcome in test [6] (filed as antagonist) and in test [9] was Active. Besides, the outcome in [7] was inactive. Also, the Ratio pKi in [10] worked out at 0.98.
Regarding `CC[C@H](O)C(C[C@@H](C)N(C)C)(c1ccccc1)c1ccccc1`, the inhibition result in test [2] is “inactive”.
For `CC[C@H](O)C(C[C@@H](C)N)(c1ccccc1)c1ccccc1`, in test [6] (filed as antagonist), the result was Active. Moreover, in [7], the outcome was inactive.
Take `CC[C@@H](O)C(C[C@H](C)N)(c1ccccc1)c1ccccc1`: in test [6] (filed as antagonist), the Activity entry was “Active; Compound Activity Comparable To (S)-Methadone”. The outcome in [7] was inactive. For the same compound, in test [11], the result was Active.
As for `CCC1=[N+](C)[C@@H](C)CC1(c1ccccc1)c1ccccc1`, the inhibition entry in test [1], in test [2], in test [3] and in [4] was “inactive” each time.
As to `C[C@@H](CC(C(=O)O)(c1ccccc1)c1ccccc1)N(C)C`, the inhibition entry in test [1], in test [2], in test [3] and in [4] was “inactive” throughout.
In the case of `C[C@H]1CC(c2ccccc2)(c2ccccc2)C(=O)N1C`, the inhibition result in test [1], in test [2], in test [3] and in [4] was “inactive” throughout.
As for `CCC(=O)C(C[C@H](C)N(C)C)(c1ccccc1)c1ccccc1`, the result in [6] (filed as antagonist) and in test [7] was Active.

Values taken from ChEMBL document CHEMBL6115009.
